Values quoted from earlier work, collected in patent US20130122120A1, “INSECTICIDAL COMPOSITIONS AND METHODS” (priority 2011, published 2013).

Legend:
aphids = conditions: nymphs and adults
[1] = applied directly to skin or consumed

For `CCCCCCCCCCCCOS(=O)(=O)[O-].[Na+]` [Sodium lauryl sulfate, Sodium dodecyl sulfate], the aggregation number (at the CMC) is listed as “about 62”, the “critical micelle concentration (CMC)” value (pure water at 25° C.) is listed as 8.2 mM and the efficacy against aphids (aphids) is listed as “some limited efficacy for treating aphids, killing the nymphs, but merely delays death in adults”. For the same molecule, the “Ames (bacterial mutation) test result” value (bacterial mutation) was “negative” and the carcinogenicity [1] was “not carcinogenic”.
